This note sets out measurements from patent US20080242688A1, “Method 741” (ASTRAZENECA AB, priority 2007, published 2008).

Series [1] is described as follows: Pharmacological activity of metabolite. As to the method: Pyridinyl methylation of AZD0328 was a unique polar metabolite (M2) observed in dog hepatocytes. Other minor hydroxylation/oxidation and glucuronide conjugation products were detected in monkey, dog, rat, and guinea pig hepatocyte incubations and mini-pig hepatic microsome incubations. […] Analysis of plasma and urine samples from either orally or iv dosed rats confirmed N-oxide product of AZD0328 was a main product in the excretion and circulation. The percentage of AZD0328 N-oxide in the plasma from male rats was much higher than from females.

Series [2] in a line: Mass balance of [14C]-AZD0328 in rats. The class given is in vivo, rat. As to the method: In the mass balance study conducted in fed rats, a Tmax of 0.5 h to 1 h was observed following single and multiple oral doses (solution). The bioavailability of AZD0328 (total radioactivity) in this study was >90%. […] Generally speaking, the elimination was complete within the 24-hour interval at the dose levels tested.
Pharmacokinetics and mass balance of [^14C]-AZD0328 were investigated in rats. The excretion of [^14C]-AZD0328-derived radioactivity in rats was mainly through the kidney. Over the course of the study, radioactivity recovered in urine and feces accounted for approximately 85% and 8%, respectively.

A short description of another series: Rat QWBA study. The format is in vivo. Particulars: single oral dose. As to the method:
AZD0328 is a low protein binding molecule across species including human (<15%) across the concentration range 21.6 to […] (0.1 to 100 μM). In most species, the binding was concentration and gender independent. […] [14C]-AZD0328-derived radioactivity was rapidly distributed to the organs and tissues with high levels of radioactivity associated with the contents of the GI tract and the major excretion organs, including kidney and liver. The radioactivity declined rapidly and by 168 h postdose radioactivity levels were not detectable in most tissues, with the exception of a few ocular tissues and nasal turbinates. […] Notable association of [^14C]-AZD0328-related radioactivity with the melanin-containing tissues was observed, with measurable radioactivity still present in the ocular tissues at 216 h postdose. [14C]-AZD0328-derived radioactivity crossed the placenta.

Take `[O-][N+]12CCC(CC1)C1(Cc3cccnc3O1)C2` (stereo not shown) [quinuclidinyl-N-oxide of AZD0328]: in series [1], the “pharmacological activity of metabolite” value was “pharmacological inactive”.

`c1cnc2c(c1)C[C@@]1(CN3CCC1CC3)O2` [[^14C]-AZD0328]: in series [2], the “radioactivity recovered in feces” value is listed as roughly 8% and the “radioactivity recovered in urine” value is recorded as “approximately 85%”. For the same compound, the “time of maximum blood and plasma concentrations of radioactivity” value in the series “Rat QWBA study” is reported as 0.5 h.
